Four compounds from patent US8741592B2, “Methods of screening an agent for an activity in an isolated eye of a teleost” (Phylonix Pharmaceuticals, Inc., priority 2007, dated 2014) can be followed below.

In data set [1] the test system is CoCl2 induced CNV. Put plainly: Eye specific angiogenesis ELISA (eZ-CNV ELISA) on isolated eyes. The data set is classed as in vivo, zebrafish. Particulars: co-treatment with 0.1 mg/ml CoCl2 for 4 days, 4 eyes/well. As for the experimental part:
Calculation of Drug Effects. To reduce the variability contributed by substrate and to compare results from different assays performed on different days, drug effects were normalized to % inhibition on EC proliferation. Chemiluminescent signal (CU) in each well (containing 4 eyes) was measured and used to calculate drug effect. […] In addition, to estimate non-specific background signal, 24 C were processed without antibody incubation; the mean value of which was subtracted from each CU measurement. Mean CU of D was used as 100% control. Drug effect was calculated following formula (a). %Inhibition=(1−(CU(drug treated)/CU(control)))×100% (a)
Based on the visual assessment above, co-treatment chosen as the treatment method to investigate the effects of the anti-angiogenic drugs Celebrex and Genistein in CoCl2 induced CNV in zebrafish using the eZ-CNV™ ELISA. Drug effects were calculated using the method described in Materials and Methods, infra. […] Based on the dose response curve, the optimal concentration for Celebrex was 20 μM and for Genistein was 0.0001 μM.
Methods for Dissociating Eyes from Whole Zebrafish. Zebrafish were processed for whole mount immunochemical staining with either Alexa 488 or HRP conjugated Phy-V following standard procedures. After extensive washing, stained zebrafish were incubated with 150 U/ml collagenase at 37° C. for 45 minutes; eyes were then dissociated from the whole zebrafish by gentle pipetting.
Eye Specific Angiogenesis ELISA (eZ-CNV™ ELISA). Isolated eyes of whole mount Phy-V-HRP stained zebrafish were placed in 96-well microplates, 4 eyes/well; 150 μl/well PS-atto (Lumigen, Southfield, Mich.), chemiluminescence HRP substrate, was added and the chemiluminescence signal from the enzymatic product was detected by Synergy HT microplate reader (BioTeK Instruments, Inc., Winooski, Vt.).
For orientation: ELISA stands for enzyme-linked immunosorbent assay.

The test system of data set [2] is zebrafish eye (retina). Format: in vivo.
In data set [3] the test system is CoCl2 induced CNV. Put plainly: Effect of anti-angiogenic drugs on CoCl2 induced CNV, visual assessment of Phy-V stained whole zebrafish. The data set is classed as in vivo. Particulars: for Mean ± SE (% CNV) / % CNV (per experiment) / CNV zebrafish (number per experiment): co-treatment with 0.1 mg/ml CoCl2, 24 hpf to 5 dpf; for abnormal neovascularization in the choroidal vessel plexus: co-treatment with CoCl2, 5 dpf zebrafish. As for the experimental part:
24 hpf zebrafish were treated with 0.1 mg/ml CoCl2 continuously for 4 days, and various concentrations of Celebrex or Genistein were incubated with the zebrafish. At the 5 dpf stage, zebrafish were fixed and stained with zebrafish angiogenic-vessel-specific antibody, Phy-V. Several treatment strategies were assessed: (1) pre-treatment (high concentration of drug added for 4 hours and withdrawn before CoCl2 induction); (2) co-treatment (drugs were co-treated with CoCl2); and (3) post-treatment (drugs were added 24 hours after CoCl2).
The drug effects on CNV zebrafish were assessed visually using microscopic examination of Phy-V stained whole zebrafish. % CNV inhibition was calculated by dividing the total number of CNV zebrafish by the total number of zebrafish per experiment (Tables II and III). The percentage of CNV zebrafish was lowest after co-treatment with Celebrex.
Celebrex or Genistein Co-Treatment. Celebrex and Genistein dissolved in DMSO were added directly to fish water, the final concentration of DMSO for Celebrex and Genistein was 0.8%. For pre-treatment, 24 hpf zebrafish were incubated with high concentrations of each drug at 28° C. for 4 hours; the drugs were washed off and zebrafish were treated with 0.1 mg/ml CoCl2. For co-treatment, each drug was added simultaneously with 0.1 mg/ml CoCl2. For post-treatment, each drug was added 24 hours after CoCl2 addition. After drug treatment, zebrafish were washed and processed for whole mount immunochemical staining
Whole Mount Immunofluorescence Staining. Zebrafish were fixed by Dent's fixative (DMSO/methanol=⅓) and processed for whole mount immunochemical staining following standard procedures (Westerfield, 1993, supra). Alexa 488 conjugated Phy-V antibody (Phylonix), which specifically labels activated endothelial cells, was used to stain zebrafish, and followed by examination by fluorescence microscopy.

In data set [4] the test system is choroidal neovascularization (CNV) in zebrafish. Nature of the data set: Hypoxia-induced choroidal neovascularization (CNV) model, Phy-V staining of treated zebrafish. Format: in vivo.
The test system of data set [5] is IGF. The arrangement: key: ↑: Up arrows indicate up-regulation; ↓: down arrows indicate down-regulation; —: horizontal line indicates no change. The note with it: zebrafish, in vivo.
Data set [6] has as its system zebrafish. The note with it: in vivo.
Data set [7] relates to HIF-1α. Set-up: key: ↑: Up arrows indicate up-regulation; ↓: down arrows indicate down-regulation; —: horizontal line indicates no change. The note with it: zebrafish, in vivo.
The subject of data set [8] is PEDF. Set-up: key: ↑: Up arrows indicate up-regulation; ↓: down arrows indicate down-regulation; —: horizontal line indicates no change. The note with it: zebrafish, in vivo.
Data set [9] concerns VEGF. Set-up: key to VEGF expression (RT-PCR): ↑: Up arrows indicate up-regulation; ↓: down arrows indicate down-regulation; —: horizontal line indicates no change. Particulars: zebrafish, in vivo.
The test system of data set [10] is PGK. Set-up: key: ↑: Up arrows indicate up-regulation; ↓: down arrows indicate down-regulation; —: horizontal line indicates no change. The note with it: zebrafish, in vivo.
[11] abbreviates: CoCl2 + 20 μM Celebrex-treated 5 dpf zebrafish.

Several values for one entry are separate records, joined by “and”; a condition that tells them apart may be missing. Identical values can stand only once. Entries after “also recorded” stand apart in the source; their conditions may differ.

On to `Cc1ccc(-c2cc(C(F)(F)F)nn2-c2ccc(S(N)(=O)=O)cc2)cc1` [Celebrex], for which, in [1], the “dose response in eZ-CNV ELISA” value was “typical dose response curve” and the “optimal concentration based on the dose response curve” value came out at 20 µM. In data set [2] (setting [11]), the “effect on eye development” value is reported as “did not delay eye development” and the retinal structure result is listed as “normal 5 layer structure with no vessels present in the retina”. For the same compound, in [3] (Celebrex 10 μM), the “Mean ± SE (% CNV)” value came to 37.0 ± 16.1%. Further, the “Mean ± SE (% CNV)” value in data set [3] (Celebrex 15 μM) is reported as 22.1 ± 12.4%. Also, in data set [3] (Celebrex 20 μM), the “% CNV (per experiment)” value is 0% and 10.0%; the “Mean ± SE (% CNV)” value was 3.3 ± 3.3%. The “abnormal neovascularization in the choroidal vessel plexus” value in data set [3] is recorded as “prevented abnormal neovascularization”. Also, the “inhibition of CoCl2 induced CNV after post-treatment” value in data set [3] (post-treatment, drug added 24 hours after CoCl2) is reported as “limited inhibition”. For the same compound, in [3] (pre-treatment, high concentration of drug 4 hours, withdrawn before CoCl2 induction), the CNV after pre-treatment result is “low percentage of CNV zebrafish, however, the CNV defects were severe”.
Consider `CC(C)(S)[C@@H](N)C(=O)O` [Penicillamine], for which the CNV result in data set [4] (0.01 μM Penicillamine from 24 hpf, at 5 dpf) is “CNV was observed”. For the same compound, in [4] (0.01 μM Penicillamine treatment at the 24 hpf stage), the angiogenesis entry was “stimulated angiogenesis throughout the zebrafish”. Besides, the “zebrafish developing CNV compared with CoCl2 treatment” value in data set [4] (Penicillamine treatment) is “Fewer zebrafish developed CNV”.
Consider `O=c1c(-c2ccc(O)cc2)coc2cc(O)cc(O)c12` [Genistein], for which, in data set [1], the “dose response in eZ-CNV ELISA” value is given as “only showed preventative effects at a low concentration” and the “optimal concentration based on the dose response curve” value worked out at 0.0001 µM. Besides, the “Mean ± SE (% CNV)” value in [3] (Genistein 0.0001 μM) was 20.8%. Further, in data set [3] (Genistein 0.001 μM), the “% CNV (per experiment)” value was 36.8% and 39.1%; the “CNV zebrafish (number per experiment)” value was 7 and 9; the “Mean ± SE (% CNV)” value amounted to 38.0%. In data set [3] (Genistein 0.01 μM), the “% CNV (per experiment)” value worked out at 23.5%, the “CNV zebrafish (number per experiment)” value worked out at 4 and the “Mean ± SE (% CNV)” value is 23.5%. In data set [3], the “abnormal neovascularization in the choroidal vessel plexus” value is reported as “prevented abnormal neovascularization”.
Take `[Cl-].[Cl-].[Co+2]` [CoCl2]: the “IGF expression (RT-PCR)” value in data set [5] is “—”. In [6], the lethality entry is given as “instantaneous death” and the zebrafish dying is recorded as 100%. Also, the “HIF-1α expression (RT-PCR)” value in data set [7] is “↑ and ↓ and —”. Further, the “PEDF expression (RT-PCR)” value in [8] is listed as “—”. For the same compound, the “retinal structure / vessels in the retina” value in data set [2] (zebrafish, in vivo) is “abnormal vessels formed in the retina; also recorded: abnormal retinal structure”. In [4] (zebrafish, in vivo), the “frequency or severity of CNV” value is listed as “did not increase the frequency or severity of CNV”, the “number of treated zebrafish exhibiting CNV specific phenotype” value came out at 64, the “treated zebrafish exhibiting CNV specific phenotype” value is 63.6±11.1% and the vessel growth result was “did not stimulate vessel growth”. In addition, in data set [9], the “VEGF expression (RT-PCR)” value was “— and ↑”; the “VEGF expression (RT-PCR), in words” value was “Up-regulation”. Besides, the “PGK expression (RT-PCR)” value in data set [10] is recorded as “—”.
